Laboratory results: ChEMBL document CHEMBL1275582, “Role of the Ser-287-Asn replacement in the hydrolysis spectrum extension of AmpC beta-lactamases in Escherichia coli” (2009)
In brackets after ≈: the same amount, converted by molar mass.

tested on: Escherichia coli; test: Antibacterial activity against Escherichia coli TOP10 expressing AmpC-A by agar dilution method in presence of 2 mg/liter clavulanic acid; format: functional

Compared with `CC1(C)S[C@@H]2[C@H](NC(=O)[C@H](N)c3ccc(O)cc3)C(=O)N2[C@H]1C(=O)O` [AMOXICILLIN], `CC1(C)S[C@@H]2[C@H](NC(=O)[C@H](C(=O)O)c3ccsc3)C(=O)N2[C@H]1C(=O)O` [TICARCILLIN] is lower in MIC: > 512 µg/mL for the first, 2 µg/mL for the second.

tested on: Escherichia coli; test: Antibacterial activity against Escherichia coli TOP10 by agar dilution method in presence of 4 mg/liter Tazobactam; format: functional

`CCN1CCN(C(=O)N[C@@H](C(=O)N[C@@H]2C(=O)N3[C@@H]2SC(C)(C)[C@@H]3C(=O)O)c2ccccc2)C(=O)C1=O` [PIPERACILLIN] gave an MIC of 1 µg/mL.

tested on: Escherichia coli; test: Antibacterial activity against Escherichia coli TOP10 expressing AmpC-A S287N mutant protein by agar dilution method; format: functional

`C[C@H]1[C@H](NC(=O)/C(=N\OC(C)(C)C(=O)O)c2csc(N)n2)C(=O)N1S(=O)(=O)O` [AZTREONAM] and `CO/N=C(\C(=O)N[C@@H]1C(=O)N2C(C(=O)[O-])=C(C[N+]3(C)CCCC3)CS[C@H]12)c1csc(N)n1` [CEFEPIME] are the same in MIC: 16 µg/mL (≈ 36.7 µM) for the first, 16 µg/mL (≈ 33.3 µM) for the second.

Compared with `CCN1CCN(C(=O)N[C@@H](C(=O)N[C@@H]2C(=O)N3[C@@H]2SC(C)(C)[C@@H]3C(=O)O)c2ccccc2)C(=O)C1=O` [PIPERACILLIN], `CC1(C)S[C@@H]2[C@H](NC(=O)[C@H](C(=O)O)c3ccsc3)C(=O)N2[C@H]1C(=O)O` [TICARCILLIN] is 32-fold higher in MIC: 8 µg/mL (≈ 15.5 µM) for the first, 256 µg/mL (≈ 666 µM) for the second.

tested on: Escherichia coli; test: Antibacterial activity against Escherichia coli TOP10 by agar dilution method in presence of 2 mg/liter clavulanic acid; format: functional

Compared with `CC1(C)S[C@@H]2[C@H](NC(=O)[C@H](N)c3ccc(O)cc3)C(=O)N2[C@H]1C(=O)O` [AMOXICILLIN], `CC1(C)S[C@@H]2[C@H](NC(=O)[C@H](C(=O)O)c3ccsc3)C(=O)N2[C@H]1C(=O)O` [TICARCILLIN] is 2-fold lower in MIC: 2 µg/mL for the first, 1 µg/mL for the second.

tested on: Escherichia coli; test: Antibacterial activity against Escherichia coli TOP10 expressing AmpC-B2 S287N mutant protein by agar dilution method in presence of 2 mg/liter clavulanic acid; format: functional

First: CC1(C)S[C@@H]2[C@H](NC(=O)[C@H](N)c3ccc(O)cc3)C(=O)N2[C@H]1C(=O)O [AMOXICILLIN]
Second: CC1(C)S[C@@H]2[C@H](NC(=O)[C@H](C(=O)O)c3ccsc3)C(=O)N2[C@H]1C(=O)O [TICARCILLIN]
The MIC of the first is 8-fold higher: 512 µg/mL for the first, 64 µg/mL for the second.

tested on: Escherichia coli; test: Antibacterial activity against Escherichia coli TOP10 by agar dilution method; format: functional

Compared with `CC1(C)S[C@@H]2[C@H](NC(=O)[C@H](N)c3ccc(O)cc3)C(=O)N2[C@H]1C(=O)O` [AMOXICILLIN], `CC1(C)S[C@@H]2[C@H](NC(=O)[C@H](C(=O)O)c3ccsc3)C(=O)N2[C@H]1C(=O)O` [TICARCILLIN] is 2-fold lower in MIC: 2 µg/mL (≈ 5.47 µM) for the first, 1 µg/mL (≈ 2.6 µM) for the second.

Compound `CCN1CCN(C(=O)N[C@@H](C(=O)N[C@@H]2C(=O)N3[C@@H]2SC(C)(C)[C@@H]3C(=O)O)c2ccccc2)C(=O)C1=O` [PIPERACILLIN] has an MIC of 1 µg/mL (≈ 1.93 µM).

tested on: Escherichia coli; test: Antibacterial activity against Escherichia coli TOP10 expressing AmpC-A S287N mutant protein by agar dilution method in presence of 4 mg/liter Tazobactam; format: functional

In the case of `CCN1CCN(C(=O)N[C@@H](C(=O)N[C@@H]2C(=O)N3[C@@H]2SC(C)(C)[C@@H]3C(=O)O)c2ccccc2)C(=O)C1=O` [PIPERACILLIN], the MIC is reported as 8 µg/mL.

tested on: Escherichia coli; test: Activity of Escherichia coli TOP10 beta-lactamase AmpC-B2 S287N mutant

Work on `CO/N=C(\C(=O)N[C@@H]1C(=O)N2C(C(=O)[O-])=C(C[N+]3(C)CCCC3)CS[C@H]12)c1csc(N)n1` [CEFEPIME] yielded a kcat of 0.25 s⁻¹.

tested on: Escherichia coli; test: Antibacterial activity against Escherichia coli TOP10 expressing AmpC-B2 S287N mutant protein by agar dilution method; format: functional

Compared with `CCN1CCN(C(=O)N[C@@H](C(=O)N[C@@H]2C(=O)N3[C@@H]2SC(C)(C)[C@@H]3C(=O)O)c2ccccc2)C(=O)C1=O` [PIPERACILLIN], `CC1(C)S[C@@H]2[C@H](NC(=O)[C@H](C(=O)O)c3ccsc3)C(=O)N2[C@H]1C(=O)O` [TICARCILLIN] is 16-fold higher in MIC: 4 µg/mL (≈ 7.73 µM) for the first, 64 µg/mL (≈ 166 µM) for the second.

tested on: Escherichia coli; test: Antibacterial activity against Escherichia coli TOP10 expressing AmpC-A S287N mutant protein by agar dilution method in presence of 2 mg/liter clavulanic acid; format: functional

Compared with `CC1(C)S[C@@H]2[C@H](NC(=O)[C@H](N)c3ccc(O)cc3)C(=O)N2[C@H]1C(=O)O` [AMOXICILLIN], `CC1(C)S[C@@H]2[C@H](NC(=O)[C@H](C(=O)O)c3ccsc3)C(=O)N2[C@H]1C(=O)O` [TICARCILLIN] is 2-fold lower in MIC: 512 µg/mL for the first, 256 µg/mL for the second.

tested on: Escherichia coli; test: Activity of Escherichia coli TOP10 beta-lactamase AmpC-A S287N mutant

`CO/N=C(\C(=O)N[C@@H]1C(=O)N2C(C(=O)[O-])=C(C[N+]3(C)CCCC3)CS[C@H]12)c1csc(N)n1` [CEFEPIME] showed a kcat of 1.35 s⁻¹.

tested on: Escherichia coli; test: Antibacterial activity against Escherichia coli TOP10 expressing AmpC-B2 by agar dilution method; format: functional

First: CC1(C)S[C@@H]2[C@H](NC(=O)[C@H](N)c3ccc(O)cc3)C(=O)N2[C@H]1C(=O)O [AMOXICILLIN]
Second: CC1(C)S[C@@H]2[C@H](NC(=O)[C@H](C(=O)O)c3ccsc3)C(=O)N2[C@H]1C(=O)O [TICARCILLIN]
The MIC of the first is higher: > 512 µg/mL for the first, 2 µg/mL (≈ 5.2 µM) for the second.

`C[C@H]1[C@H](NC(=O)/C(=N\OC(C)(C)C(=O)O)c2csc(N)n2)C(=O)N1S(=O)(=O)O` [AZTREONAM] and `CO/N=C(\C(=O)N[C@@H]1C(=O)N2C(C(=O)[O-])=C(C[N+]3(C)CCCC3)CS[C@H]12)c1csc(N)n1` [CEFEPIME] are the same in MIC: 0.06 µg/mL (≈ 0.138 µM) for the first, 0.06 µg/mL (≈ 0.125 µM) for the second.

Compound `CCN1CCN(C(=O)N[C@@H](C(=O)N[C@@H]2C(=O)N3[C@@H]2SC(C)(C)[C@@H]3C(=O)O)c2ccccc2)C(=O)C1=O` [PIPERACILLIN] has an MIC of 2 µg/mL (≈ 3.86 µM).

tested on: Escherichia coli; test: Antibacterial activity against Escherichia coli TOP10 expressing AmpC-B2 S287N mutant protein by agar dilution method in presence of 4 mg/liter Tazobactam; format: functional

Compound `CCN1CCN(C(=O)N[C@@H](C(=O)N[C@@H]2C(=O)N3[C@@H]2SC(C)(C)[C@@H]3C(=O)O)c2ccccc2)C(=O)C1=O` [PIPERACILLIN] has an MIC of 4 µg/mL.

tested on: Escherichia coli; test: Antibacterial activity against Escherichia coli TOP10 expressing AmpC-B2 by agar dilution method in presence of 2 mg/liter clavulanic acid; format: functional

First: CC1(C)S[C@@H]2[C@H](NC(=O)[C@H](N)c3ccc(O)cc3)C(=O)N2[C@H]1C(=O)O [AMOXICILLIN]
Second: CC1(C)S[C@@H]2[C@H](NC(=O)[C@H](C(=O)O)c3ccsc3)C(=O)N2[C@H]1C(=O)O [TICARCILLIN]
The MIC of the first is 130-fold higher: 256 µg/mL for the first, 2 µg/mL for the second.

tested on: Escherichia coli; test: Antibacterial activity against Escherichia coli TOP10 expressing AmpC-B2 by agar dilution method in presence of 4 mg/liter Tazobactam; format: functional

For `CCN1CCN(C(=O)N[C@@H](C(=O)N[C@@H]2C(=O)N3[C@@H]2SC(C)(C)[C@@H]3C(=O)O)c2ccccc2)C(=O)C1=O` [PIPERACILLIN], the MIC was 4 µg/mL.

tested on: Escherichia coli; test: Antibacterial activity against Escherichia coli TOP10 expressing AmpC-A by agar dilution method in presence of 4 mg/liter Tazobactam; format: functional

With `CCN1CCN(C(=O)N[C@@H](C(=O)N[C@@H]2C(=O)N3[C@@H]2SC(C)(C)[C@@H]3C(=O)O)c2ccccc2)C(=O)C1=O` [PIPERACILLIN] the MIC was 4 µg/mL.

tested on: Escherichia coli; test: Antibacterial activity against Escherichia coli TOP10 expressing AmpC-A by agar dilution method; format: functional

First: CC1(C)S[C@@H]2[C@H](NC(=O)[C@H](N)c3ccc(O)cc3)C(=O)N2[C@H]1C(=O)O [AMOXICILLIN]
Second: CC1(C)S[C@@H]2[C@H](NC(=O)[C@H](C(=O)O)c3ccsc3)C(=O)N2[C@H]1C(=O)O [TICARCILLIN]
The MIC of the first is higher: > 512 µg/mL for the first, 2 µg/mL (≈ 5.2 µM) for the second.

First: C[C@H]1[C@H](NC(=O)/C(=N\OC(C)(C)C(=O)O)c2csc(N)n2)C(=O)N1S(=O)(=O)O [AZTREONAM]
Second: CO/N=C(\C(=O)N[C@@H]1C(=O)N2C(C(=O)[O-])=C(C[N+]3(C)CCCC3)CS[C@H]12)c1csc(N)n1 [CEFEPIME]
The MIC of the first is 2.1-fold higher: 0.125 µg/mL (≈ 0.287 µM) for the first, 0.06 µg/mL (≈ 0.125 µM) for the second.

Compound `CCN1CCN(C(=O)N[C@@H](C(=O)N[C@@H]2C(=O)N3[C@@H]2SC(C)(C)[C@@H]3C(=O)O)c2ccccc2)C(=O)C1=O` [PIPERACILLIN] has an MIC of 4 µg/mL (≈ 7.73 µM).
